Assays:
Type in all cases: in vivo, Wistar rats
[1] = tested on: benign prostatic hyperplasia (testosterone-induced prostate hypertrophy); assay: Therapeutic efficacy on benign prostatic hyperplasia: change in prostate weight and volume; conditions: FINA 0.8 mg/kg orally, BPH-induced rats, therapeutic test
Protocol: (§1) Male Wistar rats at 8 weeks of age (Samtako, Korea) were acclimated. When the rats weighed about 380 g on average (19 weeks old), they were divided into groups of 7.
(§2) After removing the testis therefrom, the rats in one of the groups were allowed to revive for about 24 hours. Propionate testosterone was subcutaneously injected at a dose of 5 mg/kg into the castrated group and the normal group to induce prostate hypertrophy for 8 weeks (BPH-induced groups). After induction of prostate hypertrophy for 8 weeks, the rats were treated as follows. Along with testosterone injection, the bay leaf extracts were orally administered at predetermined doses (mg/kg) once a day (seven times a week) for 8 weeks. Separately, Finasteride, which is a commercially available therapeutic agent for benign prostatic hyperplasia, was orally administered to a positive control.
After completion of the experiment, the rats of all the experimental groups were euthanized. The prostate tissues and main organs were excised therefrom and measured for weight and volume using an electronic scale for animal weights and a caliper (mm^3) (Table 1).

[2] = Therapeutic test: hepatotoxicity and renal function, serum biochemical index; conditions: FINA 0.8 mg/kg orally
Protocol: as §1, §2
For use in biochemical index analysis, blood samples were taken from the rats of all the groups through abdominal veins. The blood sample was coagulated for about 30 min and centrifuged at 10,000 rpm for 5 min to separate sera. The sera thus obtained were measured for liver function index (AST and ALT), lipoprotein levels (total cholesterol (T-CHO), HDL cholesterol (HDL-C), LDL cholesterol (LDL-C)), and kidney function index (creatine), using a biochemical analyzer (AU480, Beckman Coulter, USA) (Table 2).

[3] = tested on: benign prostatic hyperplasia (testosterone-induced prostate hypertrophy); assay: Prophylactic effect on benign prostatic hyperplasia: change in prostate weight and volume; conditions: FINA 0.8 mg/kg orally, BPH-induced rats, prophylactic test
Protocol: Male Wistar rats at 8 weeks of age (Samtako, Korea) were acclimated. When the rats weighed about 320 g on average (12 weeks old), they were divided into groups of 5.
as §2, with “7” for “5”
After completion of the experiment, the rats of all the experimental groups were euthanized. The prostate tissues and main organs were excised therefrom and measured for weight and volume using an electronic scale for animal weights and a caliper (mm^3) (Table 3).

[4] = Prophylactic test: hepatotoxicity and renal function, serum biochemical index; conditions: FINA 0.8 mg/kg orally
Protocol: Male Wistar rats at 8 weeks of age (Samtako, Korea) were acclimated. When the rats weighed about 320 g on average (12 weeks old), they were divided into groups of 5. After removing the testis therefrom, the rats in one of the groups were allowed to revive for about 24 hours. Propionate testosterone was subcutaneously injected at a dose of 7 mg/kg into the castrated group and the normal group to induce prostate hypertrophy for 8 weeks (BPH-induced groups). After induction of prostate hypertrophy for 8 weeks, the rats were treated as follows. Along with testosterone injection, the bay leaf extracts were orally administered at predetermined doses (mg/kg) once a day (seven times a week) for 8 weeks. Separately, Finasteride, which is a commercially available therapeutic agent for benign prostatic hyperplasia, was orally administered to a positive control. For use in biochemical index analysis, blood samples were taken from the rats of all the groups through abdominal veins. The blood sample was coagulated for about 30 min and centrifuged at 10,000 rpm for 5 min to separate sera. The sera thus obtained were measured for liver function index (AST and ALT), lipoprotein levels (total cholesterol (T-CHO), HDL cholesterol (HDL-C), LDL cholesterol (LDL-C)), and kidney function index (creatine), using a biochemical analyzer (AU480, Beckman Coulter, USA) (Table 4).

Question: What does the source list for `CC(C)(C)NC(=O)[C@H]1CC[C@H]2[C@@H]3CC[C@H]4NC(=O)C=C[C@]4(C)[C@H]3CC[C@]12C` [Finasteride]?
Answer: Kidney weight [1]: 0.65 g; Liver weight [1]: 10.36 g; Prostate volume [1]: 3459.59 mm^3; Prostate weight (b) [1]: 1.16 g; Ratio (b/a*100) [1]: 0.28%; Weight (a) [1]: 426.6 g; ALT [2]: 50.3 U/L; AST [2]: 83.1 U/L; CRE [2]: 0.3 mg/dL; HDL [2]: 43.6 mg/dL; LDL [2]: 14.1 mg/dL; T-CHO [2]: 70.7 mg/dL; Kidney weight [3]: 0.58 g; Liver weight [3]: 8.09 g; Prostate volume [3]: 4626.31 mm^3; Prostate weight (b) [3]: 1.43 g; Ratio (b/a*100) [3]: 0.43%; Weight (a) [3]: 328.3 g; ALT [4]: 51.6 U/L; AST [4]: 140.4 U/L; CRE [4]: 0.2 mg/dL; HDL [4]: 43.3 mg/dL; LDL [4]: 17.0 mg/dL; T-CHO [4]: 60.6 mg/dL
